From PubChem BioAssay (NCI)
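Where inhibition never reached the appropriate level, the endpoint shown equals the highest concentration tested. Otherwise, values were interpolated linearly from a five-concentration, 48-hour dose response in 96-well plates. GI50: concentration for 50% inhibition of growth. TGI is the concentration that stops growth completely.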

Tests used:
Assay in all cases: DTP human tumour cell line panel, 48 h; in the data active = GI50 below about 0.43 µM; inactive = the rest
UACC-257 melanoma = test system: UACC-257 melanoma
CCRF-CEM leukemia = test system: CCRF-CEM leukemia
LOX IMVI melanoma = test system: LOX IMVI melanoma
MOLT-4 leukemia = test system: MOLT-4 leukemia
SK-MEL-5 melanoma = test system: SK-MEL-5 melanoma
COLO 205 colon = test system: COLO 205 colon
HOP-92 NSCLC = test system: HOP-92 NSCLC
RXF 393 renal = test system: RXF 393 renal
TK-10 renal = test system: TK-10 renal
PC-3 prostate = test system: PC-3 prostate

O=C(O)c1ccc([N+](=O)[O-])c2c(=O)c3ccccc3[nH]c12
> 100 µM: TGI (UACC-257 melanoma) | TGI (CCRF-CEM leukemia) | TGI (LOX IMVI melanoma) | TGI (MOLT-4 leukemia) | TGI (SK-MEL-5 melanoma) | TGI (COLO 205 colon) | TGI (HOP-92 NSCLC) | TGI (RXF 393 renal)

CCCN(CCC)C(=O)Cc1c2n(c3ccccc13)Cc1ccccc1-2
57.7 µM: TGI (HOP-92 NSCLC)
> 100 µM: TGI (UACC-257 melanoma) | TGI (CCRF-CEM leukemia) | TGI (LOX IMVI melanoma) | TGI (MOLT-4 leukemia) | TGI (SK-MEL-5 melanoma) | TGI (COLO 205 colon) | TGI (TK-10 renal) | TGI (RXF 393 renal)

O=C(Nc1nccs1)c1cc(C2=CC=CC([N+](=O)[O-])C=C2)nc(=S)[nH]1 (stereo not given)
> 100 µM: TGI (UACC-257 melanoma) | TGI (CCRF-CEM leukemia) | TGI (LOX IMVI melanoma) | TGI (MOLT-4 leukemia) | TGI (SK-MEL-5 melanoma) | TGI (COLO 205 colon) | TGI (HOP-92 NSCLC) | TGI (TK-10 renal) | TGI (RXF 393 renal)

COc1cc(-c2cc(-c3nc4ccccc4[nH]3)[nH]n2)cc(OC)c1OC
5.17 µM: TGI (MOLT-4 leukemia)
22.8 µM: TGI (TK-10 renal)
3.94 µM: TGI (SK-MEL-5 melanoma)
inactive: GI50 (UACC-257 melanoma) 2.1 µM | GI50 (CCRF-CEM leukemia) 2.12 µM | GI50 (MOLT-4 leukemia) 2.13 µM | GI50 (SK-MEL-5 melanoma) 1.34 µM | GI50 (COLO 205 colon) 3.98 µM | GI50 (TK-10 renal) 4.07 µM | GI50 (RXF 393 renal) 1.77 µM | GI50 (PC-3 prostate) 2.1 µM
8.54 µM: TGI (PC-3 prostate)
9.96 µM: TGI (CCRF-CEM leukemia)
15.6 µM: TGI (COLO 205 colon)
6.12 µM: TGI (UACC-257 melanoma)
11.4 µM: TGI (RXF 393 renal)

Cc1nn2c(/C=C3/C(=O)Nc4ccccc43)c(-c3ccc(Cl)cc3)nc2s1
> 50 µM: TGI (UACC-257 melanoma) | TGI (CCRF-CEM leukemia) | TGI (MOLT-4 leukemia) | TGI (SK-MEL-5 melanoma) | TGI (COLO 205 colon)
21.4 µM: TGI (LOX IMVI melanoma)
inactive: GI50 (UACC-257 melanoma) 37.3 µM | GI50 (CCRF-CEM leukemia) 12.3 µM | GI50 (LOX IMVI melanoma) 10.6 µM | GI50 (MOLT-4 leukemia) > 50 µM | GI50 (SK-MEL-5 melanoma) 26.3 µM | GI50 (COLO 205 colon) 14.9 µM | GI50 (TK-10 renal) 12.3 µM | GI50 (RXF 393 renal) 14.1 µM | GI50 (PC-3 prostate) 12.2 µM
32.1 µM: TGI (TK-10 renal)
42.8 µM: TGI (RXF 393 renal)
32.2 µM: TGI (PC-3 prostate)

CCCC(=O)N[C@@H](Cc1cc(I)c(O)c(I)c1)C(=O)NCCCNCCCCNCCCNC(=O)[C@@H](N)CCCN=C(N)N
> 100 µM: TGI (UACC-257 melanoma) | TGI (CCRF-CEM leukemia) | TGI (LOX IMVI melanoma) | TGI (MOLT-4 leukemia) | TGI (SK-MEL-5 melanoma) | TGI (COLO 205 colon) | TGI (TK-10 renal) | TGI (RXF 393 renal)

COc1ccc(C(=O)/C=C/c2cc(C(=O)c3cc(OC)c(OC)c(OC)c3)ccc2OC)cc1
58.9 µM: TGI (HOP-92 NSCLC)
inactive: GI50 (HOP-92 NSCLC) 5.81 µM | GI50 (TK-10 renal) 14 µM | GI50 (RXF 393 renal) 14.7 µM
> 100 µM: TGI (TK-10 renal) | TGI (RXF 393 renal)

COc1ccc2nc(NC(=O)C(=O)CC(=O)c3ccc(Cl)cc3)sc2c1
> 100 µM: TGI (UACC-257 melanoma) | TGI (CCRF-CEM leukemia) | TGI (MOLT-4 leukemia) | TGI (SK-MEL-5 melanoma) | TGI (COLO 205 colon) | TGI (HOP-92 NSCLC) | TGI (TK-10 renal) | TGI (RXF 393 renal)

COC1=C(C(=O)OC(C)(C)C)[C@]2(C)C(C(=O)OC(C)(C)C)C(OC)=C(C(=O)OC(C)(C)C)[C@]2(C)C1C(=O)OC(C)(C)C (stereo not given in full)
> 100 µM: TGI (UACC-257 melanoma) | TGI (CCRF-CEM leukemia) | TGI (LOX IMVI melanoma) | TGI (MOLT-4 leukemia) | TGI (SK-MEL-5 melanoma) | TGI (COLO 205 colon) | TGI (HOP-92 NSCLC) | TGI (TK-10 renal) | TGI (RXF 393 renal)

COc1ccc(C=NC23CC4CC(CC(C4)C2)C3)cc1
> 10 µM: TGI (COLO 205 colon)
> 100 µM: TGI (UACC-257 melanoma) | TGI (CCRF-CEM leukemia) | TGI (LOX IMVI melanoma) | TGI (MOLT-4 leukemia) | TGI (SK-MEL-5 melanoma) | TGI (TK-10 renal) | TGI (RXF 393 renal)

O=C(O)c1ccc(NS(=O)(=O)c2cccc3cccnc23)cc1
inactive: GI50 (UACC-257 melanoma) > 100 µM | GI50 (CCRF-CEM leukemia) > 100 µM | GI50 (LOX IMVI melanoma) > 100 µM | GI50 (MOLT-4 leukemia) > 100 µM | GI50 (SK-MEL-5 melanoma) > 100 µM | GI50 (COLO 205 colon) > 100 µM | GI50 (RXF 393 renal) > 100 µM | GI50 (PC-3 prostate) > 100 µM
> 100 µM: TGI (UACC-257 melanoma) | TGI (CCRF-CEM leukemia) | TGI (LOX IMVI melanoma) | TGI (MOLT-4 leukemia) | TGI (SK-MEL-5 melanoma) | TGI (COLO 205 colon) | TGI (RXF 393 renal) | TGI (PC-3 prostate)

Cc1cccc(C)c1NC(=O)C(=O)CC(=O)CO
> 100 µM: TGI (UACC-257 melanoma) | TGI (CCRF-CEM leukemia) | TGI (LOX IMVI melanoma) | TGI (MOLT-4 leukemia) | TGI (SK-MEL-5 melanoma) | TGI (COLO 205 colon) | TGI (HOP-92 NSCLC) | TGI (TK-10 renal) | TGI (RXF 393 renal)

CCN(CC)C(=S)N/N=C(\C)c1ccccc1O
77.4 µM: TGI (LOX IMVI melanoma)
51.9 µM: TGI (SK-MEL-5 melanoma)
> 100 µM: TGI (UACC-257 melanoma) | TGI (MOLT-4 leukemia) | TGI (COLO 205 colon) | TGI (TK-10 renal) | TGI (RXF 393 renal)
78 µM: TGI (CCRF-CEM leukemia)

CC(=S)NNC(=O)c1ccncc1
> 100 µM: TGI (UACC-257 melanoma) | TGI (CCRF-CEM leukemia) | TGI (LOX IMVI melanoma) | TGI (MOLT-4 leukemia) | TGI (SK-MEL-5 melanoma) | TGI (COLO 205 colon) | TGI (HOP-92 NSCLC) | TGI (TK-10 renal) | TGI (RXF 393 renal)

O=C(c1ccc(NCN2C(=O)CCC2=O)cc1)c1ccc(NCN2C(=O)CCC2=O)cc1
84.6 µM: TGI (UACC-257 melanoma)
> 100 µM: TGI (CCRF-CEM leukemia) | TGI (LOX IMVI melanoma) | TGI (MOLT-4 leukemia) | TGI (SK-MEL-5 melanoma) | TGI (COLO 205 colon) | TGI (HOP-92 NSCLC) | TGI (TK-10 renal) | TGI (RXF 393 renal)
